Measured values taken from patent US10864192B2, “Compositions and methods for inhibiting brain trauma-induced neurodegeneration and related conditions” (priority 2016, dated 2020).
Where “and” joins values, the source holds several entries; their conditions need not be identical. Equal values may be shown once. Read-outs that look alike come from different tables or passages of the source.

Key:
SH-SY5Y cells = experiment: Cell proliferation of SH-SY5Y cells (MTS assay); assay type: cell-based, human; details: 30 uM, 24 hr
Procedure: SHSYSY cells were exposed for 24 hr to 30 uM concentration of (−)- and (+)-phenserine. After 24 hr cell proliferation was determined by MTS assay. *P,0.05, **p,0.01, and ***p,0.001 compared to control samples without drug.

SH-SY5Y neuronal cells = experiment: Phenserine plus anti-inflammatory drug, oxidative stress and trophic effects in SH-SY5Y cells (MTS assay)
Procedure: Human SH-SY5Y neuronal cells were seeded in 96-well plates at a density of 1×10^5 cells per well and allowed to grow for 24 hr. […] […] At 18 hr thereafter a MTS assay was performed per the manufacturers protocol (Abcam, Cambridge, Mass.) to measure cell viability.
For example, instead of aspirin (as shown in FIG. 3A), an NSAID, naproxen, was used under the same experimental conditions at concentrations in FIGS. 3B-3D.

[1] = Plasma concentrations of phenserine and its metabolites in human plasma; assay type: in vivo; details: both sexes, in vivo; for concentration at 1 h: Hour 1; for concentration at 2 h: Hour 2; for concentration at 3 h: Hour 3; for concentration at 4 h: Hour 4
Procedure: The relationship between pharmacokinetic and pharmacodynamics evaluated in FIG. 15 was evaluated in aged volunteers. A total of 32 subjects (60-80 years of age, 11 males/21 females) were screened and enrolled. All participants provided informed consent, the conduct of the study were approved and overseen by the local Review IRB.
For pharmacokinetic (blood concentrations of primary drug and select metabolites) a dose […] additionally was evaluated.
These were centrifuged within 15 min of collection, and stored in a freezer at −70° C. freezer in marked polypropylene tubes until analysis. Phenserine levels were quantified by liquid chromatography/mass spectrometry (LC/MS/MS). In brief, analyses were undertaken on Perkin-Elmer (PE, Norwalk, USA) high performance liquid chromatographic (HPLC) instrumentation. Compound separation was performed on a Phenomenex LUNA C18 column (5 μM, 2.0 mm×150 mm; Torrance, USA), with a Phenomenex guard column (2 mm×30 mm). The mobile phase was 60% acetonitrile (HPLC grade) plus 40% ammonium acetate (v/v) with a flow rate of 0.4 mL/min. […] Thereafter, 2 mL of tert-butyl methyl ether was added and the sample was mixed and flash frozen. The organic layer was decanted, dried under a stream of nitrogen and reconstituted into 250 μL of mobile phase. Of this, a 60 μL sample was then injected into the HPLC.

[2] = Plasma concentrations of phenserine and its metabolites in beagle dog plasma; assay type: in vivo; details: beagle, in vivo; for concentration at 1 h: Hour 1; for concentration at 2 h: Hour 2; for concentration at 3 h: Hour 3; for concentration at 4 h: Hour 4
clinical = details: for t1/2 /Elim / Estimated Brain CMax: 15 mg immediate release dose; for Estimated Brain CMax: from plasma CMax and brain:plasma partitioning; for Cmax: human, in vivo, 15 mg
Excerpt: FIGS. 33-34 depict two graphs from an Excel spreadsheet. FIG. 33 is a linear plot of plasma level vs time and FIG. 34 is a semi-log plot of plasma conc. vs time.

[3] = Estimated EC50/IC50 of phenserine and metabolites for pharmacological activity in brain
[4] = in vivo
[5] = Plasma concentrations of phenserine and its metabolites in wistar rat plasma; details: in vivo; for concentration at 1 h: Hour 1; for concentration at 2 h: Hour 2

SMILES | concentration at 1 h [1] [ng/mL] | concentration at 2 h [1] [ng/mL] | concentration at 3 h [1] [ng/mL] | concentration at 4 h [1] [ng/mL] | concentration at 1 h [2] [ng/mL] | concentration at 2 h [2] [ng/mL] | concentration at 3 h [2] [ng/mL] | concentration at 4 h [2] [ng/mL] | t1/2 /Elim (clinical) [h] | Cmax (clinical) | Estimated EC50 [3] | brain:blood partition [4] | concentration at 1 h [5] [ng/mL] | concentration at 2 h [5] [ng/mL] | Estimated Brain CMax (clinical) | also measured
CN1CC[C@]2(C)c3cc(OC(=O)Nc4ccccc4)ccc3N(C)[C@H]12 [(+)-phenserine, reference compound] |  |  |  |  |  |  |  |  |  |  |  |  |  |  |  | cell proliferation (neurotrophic actions) (SH-SY5Y cells): increasing cellular proliferation
CC(=O)Oc1ccccc1C(=O)O [ASA, acetylsalicylic acid, reference compound] |  |  |  |  |  |  |  |  |  |  |  |  |  |  |  | oxidative stress-induced cellular death (cell viability) (SH-SY5Y neuronal cells; ASA 10^−5 M, (−)-Phen 10^−7 M, 10^−6 M, H2O2 50 μM, 18 hr): no activity
C[C@@]12CCN[C@@H]1Nc1ccc(OC(=O)Nc3ccccc3)cc12 [N1,N8-bisnor-phenserine, (−)-N1, N8-bisnorphenylcarbamoyleseroline] | 22.5 | 14.5 | 7.62 | 6.55 | 235 | 220 | 428 | 351 | 0.53 to 1.29 | 22.5 ng/mL and 73.3 nM | 100 NanoMolar | approx. 1.3:1 | 536 | 539 |  | Estimated Brain CMax (clinical; listed as N-1, N-8 BisNor P): 28.8 ng/ml and 95.0 nM; IC50 ([3]; BNPCE IC50+/−25, read-out: IC50 (estimated)): 22 nM; IC50 ([3]; pharmacological activity in brain, read-out: estimated IC50): 100 nM
CN1c2ccc(OC(=O)Nc3ccccc3)cc2[C@]2(C)CCN[C@H]12 [N1-nor-phenserine, (−)-N1-norphenylcarbamoyleseroline] | 1.56 | 1.19 | 0.8 | 0.53 | 86.1 | 50.3 | 86.7 | 41.9 | 1.90 to 1.96 | 1.56 ng/mL and 4.8 nM | 24-100 NanoMolar | approx. 4:1 | 37.6 | 26.2 | 2.15 ng/ml and 6.6 nM | expected plasma levels (clinical; targeted 30 mg/d or 60 mg/d in sustained release formulation): > 1.0 ng/mL
CN1CC[C@@]2(C)c3cc(OC(=O)Nc4ccccc4)ccc3N[C@@H]12 [N8-nor-phensereine, (−)-N8-norphenylcarbamoyleseroline] | 11.2 | 7.38 | 4.28 | 3.61 | 33.4 | 28.2 | 9.06 | 7.88 | 1.51 to 1.76 | 11.2 ng/mL and 34.8 nM | 24-100 NanoMolar | approx. 6:1 | 96.4 | 69.2 | 17.7 ng/ml and 52.9 nM | 
COc1ccc2cc([C@H](C)C(=O)O)ccc2c1 [naproxen, reference compound] |  |  |  |  |  |  |  |  |  |  |  |  |  |  |  | tolerability by SH-SY5Y neuronal cells (SH-SY5Y neuronal cells; 10 nM to 100,000 nM): well tolerated; trophic actions (SH-SY5Y neuronal cells; 10 nM to 100,000 nM): does not show activity
